Data: the supplement of paper PMC8612539

System: Escherichia coli
Assay: minimum inhibitory concentration (MIC)
Method: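 Broth microdilution MIC (Sensititre BOPO7F bovine plate, CLSI methods) of 19 antimicrobials against field isolates of P. multocida, M. haemolytica, H. somni (deep nasopharyngeal swabs) and E. coli, Enterococcus spp. (rectal swabs) from weaned dairy heifers. Incubation 16-24 h at 35 C. MIC is the lowest concentration preventing visible growth. Values with <= or > lie at the tested range limits. Trimethoprim-sulfamethoxazole is given as the trimethoprim component of a 1:19 mixture.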

CC[C@H]1OC(=O)C[C@@H](O)[C@H](C)[C@@H](O[C@@H]2O[C@H](C)[C@@H](O[C@H]3C[C@@](C)(O)[C@@H](O)[C@H](C)O3)[C@H](N(C)C)[C@H]2O)[C@@H](CC=O)C[C@@H](C)C(=O)/C=C/C(C)=C/[C@@H]1CO[C@@H]1O[C@H](C)[C@@H](O)[C@@H](OC)[C@H]1OC [Tylosin]
Details	minimum inhibitory concentration [µg/mL]
isolate (source animal id): 8	> 32
isolate (source animal id): 9	> 32
isolate (source animal id): 10	> 32
isolate (source animal id): 11	> 32
isolate (source animal id): 12	> 32
isolate (source animal id): 13	> 32
isolate (source animal id): 14	> 32
isolate (source animal id): 15	> 32
isolate (source animal id): 16	> 32
isolate (source animal id): 98	> 32
isolate (source animal id): 99	> 32
isolate (source animal id): 100	> 32
isolate (source animal id): 101	> 32
isolate (source animal id): 102	> 32
isolate (source animal id): 103	> 32
isolate (source animal id): 104	> 32
isolate (source animal id): 105	> 32
isolate (source animal id): 106	> 32
isolate (source animal id): 107	> 32
isolate (source animal id): 108	> 32
isolate (source animal id): 109	> 32
isolate (source animal id): 110	> 32
isolate (source animal id): 111	> 32
isolate (source animal id): 112	> 32
isolate (source animal id): 113	> 32
isolate (source animal id): 114	> 32
isolate (source animal id): 115	> 32
isolate (source animal id): 116	> 32
isolate (source animal id): 117	> 32
isolate (source animal id): 118	> 32
isolate (source animal id): 119	> 32
isolate (source animal id): 120	> 32
isolate (source animal id): 121	> 32
isolate (source animal id): 122	> 32
isolate (source animal id): 123	> 32
isolate (source animal id): 124	> 32
isolate (source animal id): 125	> 32
isolate (source animal id): 126	> 32
isolate (source animal id): 127	> 32
isolate (source animal id): 128	> 32
isolate (source animal id): 129	> 32
isolate (source animal id): 130	> 32
isolate (source animal id): 131	> 32
isolate (source animal id): 132	> 32
isolate (source animal id): 133	> 32
isolate (source animal id): 134	> 32
isolate (source animal id): 135	> 32
isolate (source animal id): 136	> 32
isolate (source animal id): 137	> 32
isolate (source animal id): 138	> 32
isolate (source animal id): 139	> 32
isolate (source animal id): 140	> 32
isolate (source animal id): 141	> 32
isolate (source animal id): 142	> 32
isolate (source animal id): 143	> 32
isolate (source animal id): 144	> 32
isolate (source animal id): 145	> 32
isolate (source animal id): 146	> 32
isolate (source animal id): 147	> 32
isolate (source animal id): 148	> 32
isolate (source animal id): 149	> 32
isolate (source animal id): 150	> 32
isolate (source animal id): 151	> 32
isolate (source animal id): 152	> 32
isolate (source animal id): 153	> 32
isolate (source animal id): 154	> 32
isolate (source animal id): 155	> 32
isolate (source animal id): 156	> 32
isolate (source animal id): 157	> 32
isolate (source animal id): 158	> 32
isolate (source animal id): 159	> 32
isolate (source animal id): 160	> 32
isolate (source animal id): 161	> 32
isolate (source animal id): 162	> 32
isolate (source animal id): 163	> 32
isolate (source animal id): 164	> 32
isolate (source animal id): 165	> 32
isolate (source animal id): 166	> 32
isolate (source animal id): 167	> 32
isolate (source animal id): 168	> 32
isolate (source animal id): 169	> 32
isolate (source animal id): 170	> 32
isolate (source animal id): 171	> 32
isolate (source animal id): 172	> 32
isolate (source animal id): 173	> 32
isolate (source animal id): 174	> 32
isolate (source animal id): 175	> 32
isolate (source animal id): 176	> 32
isolate (source animal id): 177	> 32
isolate (source animal id): 178	> 32
isolate (source animal id): 179	> 32
isolate (source animal id): 180	> 32
isolate (source animal id): 181	> 32
isolate (source animal id): 182	> 32
isolate (source animal id): 183	> 32
isolate (source animal id): 184	> 32
isolate (source animal id): 185	> 32
isolate (source animal id): 186	> 32
isolate (source animal id): 187	> 32
isolate (source animal id): 188	> 32

COc1cc(NS(=O)(=O)c2ccc(N)cc2)nc(OC)n1 [sulfadimethoxine]
Details	minimum inhibitory concentration [µg/mL]
isolate (source animal id): 8	> 256
isolate (source animal id): 9	> 256
isolate (source animal id): 10	> 256
isolate (source animal id): 11	≤ 256
isolate (source animal id): 12	> 256
isolate (source animal id): 13	≤ 256
isolate (source animal id): 14	> 256
isolate (source animal id): 15	≤ 256
isolate (source animal id): 16	> 256
isolate (source animal id): 98	≤ 256
isolate (source animal id): 99	≤ 256
isolate (source animal id): 100	> 256
isolate (source animal id): 101	> 256
isolate (source animal id): 102	> 256
isolate (source animal id): 103	> 256
isolate (source animal id): 104	> 256
isolate (source animal id): 105	> 256
isolate (source animal id): 106	> 256
isolate (source animal id): 107	> 256
isolate (source animal id): 108	> 256
isolate (source animal id): 109	≤ 256
isolate (source animal id): 110	> 256
isolate (source animal id): 111	> 256
isolate (source animal id): 112	> 256
isolate (source animal id): 113	> 256
isolate (source animal id): 114	≤ 256
isolate (source animal id): 115	> 256
isolate (source animal id): 116	> 256
isolate (source animal id): 117	> 256
isolate (source animal id): 118	≤ 256
isolate (source animal id): 119	> 256
isolate (source animal id): 120	> 256
isolate (source animal id): 121	> 256
isolate (source animal id): 122	> 256
isolate (source animal id): 123	> 256
isolate (source animal id): 124	> 256
isolate (source animal id): 125	> 256
isolate (source animal id): 126	> 256
isolate (source animal id): 127	> 256
isolate (source animal id): 128	> 256
isolate (source animal id): 129	> 256
isolate (source animal id): 130	> 256
isolate (source animal id): 131	> 256
isolate (source animal id): 132	> 256
isolate (source animal id): 133	> 256
isolate (source animal id): 134	> 256
isolate (source animal id): 135	≤ 256
isolate (source animal id): 136	> 256
isolate (source animal id): 137	≤ 256
isolate (source animal id): 138	> 256
isolate (source animal id): 139	> 256
isolate (source animal id): 140	≤ 256
isolate (source animal id): 141	> 256
isolate (source animal id): 142	> 256
isolate (source animal id): 143	> 256
isolate (source animal id): 144	> 256
isolate (source animal id): 145	> 256
isolate (source animal id): 146	> 256
isolate (source animal id): 147	> 256
isolate (source animal id): 148	> 256
isolate (source animal id): 149	> 256
isolate (source animal id): 150	> 256
isolate (source animal id): 151	> 256
isolate (source animal id): 152	> 256
isolate (source animal id): 153	> 256
isolate (source animal id): 154	> 256
isolate (source animal id): 155	> 256
isolate (source animal id): 156	> 256
isolate (source animal id): 157	> 256
isolate (source animal id): 158	> 256
isolate (source animal id): 159	> 256
isolate (source animal id): 160	> 256
isolate (source animal id): 161	> 256
isolate (source animal id): 162	> 256
isolate (source animal id): 163	> 256
isolate (source animal id): 164	> 256
isolate (source animal id): 165	> 256
isolate (source animal id): 166	> 256
isolate (source animal id): 167	> 256
isolate (source animal id): 168	≤ 256
isolate (source animal id): 169	≤ 256
isolate (source animal id): 170	> 256
isolate (source animal id): 171	≤ 256
isolate (source animal id): 172	≤ 256
isolate (source animal id): 173	> 256
isolate (source animal id): 174	≤ 256
isolate (source animal id): 175	> 256
isolate (source animal id): 176	> 256
isolate (source animal id): 177	> 256
isolate (source animal id): 178	> 256
isolate (source animal id): 179	≤ 256
isolate (source animal id): 180	> 256
isolate (source animal id): 181	> 256
isolate (source animal id): 182	> 256
isolate (source animal id): 183	> 256
isolate (source animal id): 184	> 256
isolate (source animal id): 185	> 256
isolate (source animal id): 186	≤ 256
isolate (source animal id): 187	> 256
isolate (source animal id): 188	> 256
